# Reference: patent publication US20120258960A1, “NOVEL MULTIFUNCTIONAL PEPTIDASE INHIBITORS, ESPECIALLY FOR MEDICAL USE” (IMTM GMBH, priority 2009, published 2012)
# Legend:
# [1] = target: human recombinant Aminopeptidase N (Homo sapiens, UniProt P15144); assay: Measurement of APN activity (fluorogenic substrate (Ala)2-R110); type: biochemical; conditions: human recombinant APN approx. 5 nM, substrate 0.5 μM, pH 7.5
# Procedure: Inhibitory effects of test items on the enzymatic activity of human recombinant Aminopeptidase N (final concentration approx. 5 nM) were assessed by using the fluorogenic substrate bis-(L-alanyl)-Rhodamine-110 (bis-trifluoracetate, abbreviation (Ala)2-R110) at a final concentration of 0.5 μM. The assay was performed in 0.05 M TRIS/HCl buffer pH 7.5, supplemented with 0.05% Triton (v/v), 0.05% BSA (w/v), 2 mM MgCl2.
# The assay was performed in white microtitre plates for fluorescence measurements.
# As controls, (Ala)2-R110 hydrolyzing activity in the absence of any test item as well as the spontaneous substrate hydrolysis was determined.
# The release of the fluorescent hydrolysis product Rhodamine 110 was measured at an excitation wavelength of 485 nm and an emission wavelength of 530 nm by using a microtitre fluorescence reader immediately after substrate addition as well as after 30, 60 and 120 min.
# [2] = target: purified, recombinant human DPIV (Homo sapiens, UniProt P27487); assay: Measurement of DPIV activity (fluorogenic substrate (Ala-Pro)2-R110)
# Procedure: The enzymatic activity of DPIV was assessed by the hydrolysis of the fluorogenic substrate bis-(L-alanyl-prolyl)-Rhodamin-110 (bis-trifluoracetate, abbreviation (Ala-Pro)2-R110). The final substrate concentration was 0.5 μM.
# The assay was performed in white microtitre plates for fluorescence measurements. The test items, substrate and enzyme were diluted in assay buffer. […] As controls, the DPIV activity in the absence of test items as well as the spontaneous hydrolysis of the substrate was determined.
# [3] = tested on: T lymphocytes; assay: Inhibition of proliferation of PHA-stimulated T lymphocytes (tritium thymidine incorporation); type: cell-based; conditions: Homo sapiens, T-lymphocyte, 1 μg/ml Phytohemagglutinine, 48 hours, test compounds 0.1-250 μM, read-out: T cells IC50
# Procedure: Peripheral blood mononuclear cells (PBMC) from healthy human volunteers were freshly isolated by density gradient centrifugation. T lymphocytes (T cells, Tc) were isolated from PBMC fractions via nylon wool adherence. Cells were cultured in standard cell culture media and stimulated by addition of 1 μg/ml Phytohemagglutinine for 48 hours in 96 well flat-bottom microtitre plates. Test compounds were added at concentration ranges from 0.1-250 μM over the total assay period.
# DNA synthesis of proliferating T cells was determined by incorporation of radio labelled tritium thymidine and subsequent radio detection.
# Data output was based on raw data and calculation of relative proliferation response in relation to PHA-activated T cells in the absence of test compound (100% control).
# The […] value of proliferation suppression was assessed by graphical evaluation.
# human recombinant Aminopeptidase N, sequence (P15144 whole entry): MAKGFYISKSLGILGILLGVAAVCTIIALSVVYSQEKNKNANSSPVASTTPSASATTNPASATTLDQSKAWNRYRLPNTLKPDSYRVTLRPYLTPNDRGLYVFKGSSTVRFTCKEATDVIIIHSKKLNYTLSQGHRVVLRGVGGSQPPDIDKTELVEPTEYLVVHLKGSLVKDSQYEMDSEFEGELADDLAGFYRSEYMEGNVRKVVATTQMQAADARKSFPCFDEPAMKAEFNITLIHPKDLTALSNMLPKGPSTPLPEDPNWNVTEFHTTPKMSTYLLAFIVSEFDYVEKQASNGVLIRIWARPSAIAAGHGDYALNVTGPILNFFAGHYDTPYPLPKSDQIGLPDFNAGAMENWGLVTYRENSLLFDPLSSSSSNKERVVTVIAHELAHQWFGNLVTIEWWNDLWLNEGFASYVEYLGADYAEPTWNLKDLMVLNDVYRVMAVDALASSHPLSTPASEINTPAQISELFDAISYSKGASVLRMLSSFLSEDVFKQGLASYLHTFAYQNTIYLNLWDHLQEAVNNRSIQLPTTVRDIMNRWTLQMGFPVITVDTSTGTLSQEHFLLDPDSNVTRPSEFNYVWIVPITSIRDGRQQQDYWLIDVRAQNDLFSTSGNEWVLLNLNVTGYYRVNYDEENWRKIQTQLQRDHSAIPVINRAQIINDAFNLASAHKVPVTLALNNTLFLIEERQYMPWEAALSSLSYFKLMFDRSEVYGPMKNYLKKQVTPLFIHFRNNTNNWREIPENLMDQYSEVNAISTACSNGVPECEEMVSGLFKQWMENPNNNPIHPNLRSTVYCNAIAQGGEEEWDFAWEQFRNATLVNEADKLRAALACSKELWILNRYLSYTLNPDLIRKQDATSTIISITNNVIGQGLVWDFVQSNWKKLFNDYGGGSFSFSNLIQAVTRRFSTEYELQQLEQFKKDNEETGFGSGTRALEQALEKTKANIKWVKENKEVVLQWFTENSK
# purified, recombinant human DPIV, sequence (P27487 whole entry): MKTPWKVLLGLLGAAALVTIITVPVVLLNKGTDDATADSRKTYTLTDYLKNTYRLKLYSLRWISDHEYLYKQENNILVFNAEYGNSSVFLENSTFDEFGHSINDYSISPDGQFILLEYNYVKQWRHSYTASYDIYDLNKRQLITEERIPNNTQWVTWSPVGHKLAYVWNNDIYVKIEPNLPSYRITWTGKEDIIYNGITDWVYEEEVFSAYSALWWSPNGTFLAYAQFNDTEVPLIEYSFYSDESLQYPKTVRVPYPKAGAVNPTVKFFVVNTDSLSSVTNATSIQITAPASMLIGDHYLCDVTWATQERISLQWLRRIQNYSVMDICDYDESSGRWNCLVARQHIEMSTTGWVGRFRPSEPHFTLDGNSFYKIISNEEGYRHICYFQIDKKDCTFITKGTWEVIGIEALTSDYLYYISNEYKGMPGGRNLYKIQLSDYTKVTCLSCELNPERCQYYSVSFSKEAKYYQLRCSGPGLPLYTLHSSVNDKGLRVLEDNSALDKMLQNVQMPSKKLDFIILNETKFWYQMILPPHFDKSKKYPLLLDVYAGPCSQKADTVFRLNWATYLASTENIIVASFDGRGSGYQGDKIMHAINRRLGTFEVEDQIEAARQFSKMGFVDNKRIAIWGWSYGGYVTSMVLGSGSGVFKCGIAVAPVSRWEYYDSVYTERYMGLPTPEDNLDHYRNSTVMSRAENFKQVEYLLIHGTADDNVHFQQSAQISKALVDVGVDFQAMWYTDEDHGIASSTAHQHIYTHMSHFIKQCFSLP
structure (smiles),measurement,setting,value
CC(C(=O)NCC(C)(C)CNC(=O)C(O)C(N)Cc1ccccc1)C(N)Cc1cc(F)ccc1F (centres unmarked) [drawing 60],IC50,[1],0.87 µM
same,IC50,[2],0.45 µM
NC(CC(=O)NCCCCNC(=O)C(O)C(N)Cc1ccc(Br)cc1)Cc1cc(F)ccc1F (centres unmarked) [drawing 61],IC50,[1],0.06 µM
same,IC50,[2],0.1 µM
CCCCCCCCCCCCCCCC(=O)NC(CC(=O)NCC(C)(C)CNC(=O)C(O)C(Cc1ccccc1)NC(=O)CCCCCCCCCCCCCCC)Cc1cc(F)ccc1F (centres unmarked) [drawing 62],IC50,[1],> 50 µM
same,IC50,[2],> 50 µM
NC(CC(=O)NC1CCCC(NC(=O)C(O)C(N)Cc2ccccc2)C1)Cc1cc(F)ccc1F (centres unmarked) [drawing 63],IC50,[1],0.03 µM
same,IC50,[2],0.12 µM
NC(CC(=O)Nc1cccc(NC(=O)C(O)C(N)Cc2ccccc2)c1)Cc1cc(F)ccc1F (centres unmarked) [drawing 64],IC50,[1],0.35 µM
same,IC50,[2],0.5 µM
NC(CC(=O)N1CCCN(C(=O)C(O)C(N)Cc2ccccc2)CC1)Cc1cc(F)ccc1F (centres unmarked) [drawing 65],IC50,[1],10 µM
same,IC50,[2],0.07 µM
CCCCCCCCCCCCCCCCNC(CC(=O)NCC(C)(C)CNC(=O)C(O)C(Cc1ccccc1)NCCCCCCCCCCCCCCCC)Cc1cc(F)ccc1F (centres unmarked) [drawing 66],IC50,[1],> 50 µM
same,IC50,[2],> 50 µM
NC(CC(=O)NCC1(CNC(=O)C(O)C(N)Cc2ccccc2)CCCCC1)Cc1cc(F)ccc1F (centres unmarked) [drawing 67],IC50,[1],0.85 µM
same,IC50,[2],0.19 µM
NC(CC(=O)NCC1(CNC(=O)C(O)C(N)Cc2ccccc2)CCCC1)Cc1cc(F)ccc1F (centres unmarked) [drawing 68],IC50,[1],0.08 µM
same,IC50,[2],0.16 µM
CC(C)(CNC(=O)CC(N)Cc1cc(F)ccc1F)CNC(=O)C1OC(=O)NC1Cc1ccc(-c2ccccc2)cc1 (centres unmarked) [drawing 69],IC50,[1],1.9 µM
same,IC50,[2],40 µM
CC(C)(CNCC(N)Cc1cc(F)ccc1F)CNC(=O)C(O)C(N)Cc1ccccc1 (centres unmarked) [drawing 70],IC50,[1],0.33 µM
same,IC50,[2],30 µM
NC(CNC(=O)c1cccc(NC(=O)C(O)C(N)Cc2ccccc2)c1)Cc1cc(F)ccc1F (centres unmarked) [drawing 71],IC50,[1],0.009 µM
same,IC50,[2],1.7 µM
CN(CCCNC(=O)OCc1ccccc1)C(=O)C(O)C(N)Cc1ccccc1 (centres unmarked) [drawing 72],IC50,[1],11.5 µM
same,IC50,[2],> 50 µM
CC(C)(CNC(=O)CC(N)Cc1cc(F)ccc1F)CNC(=O)C(O)C(N)Cc1ccc(O)cc1 (centres unmarked) [drawing 73],IC50,[1],> 50 µM
same,IC50,[2],4.6 µM
CC(C)(CNC(=O)CC(N)Cc1cc(F)ccc1F)CNC(=O)C(O)C(N)Cc1ccc(-c2ccsc2)cc1 (centres unmarked) [drawing 74],IC50,[1],0.001 µM
same,IC50,[2],0.1 µM
CC(C)(CNC(=O)CC(N)Cc1cc(F)ccc1F)CNC(=O)C(O)C(N)Cc1ccc(-c2ccccc2)cc1 (centres unmarked) [drawing 75],IC50,[1],0.346 µM
same,IC50,[2],0.1 µM
CC(C)(CNC(=O)CC(N)Cc1cc(F)ccc1F)CNC(=O)C(O)C(N)Cc1ccc(-c2cccnc2)cc1 (centres unmarked) [drawing 76],IC50,[1],0.0008 µM
same,IC50,[2],0.096 µM
CC(C)(CNC(=O)CC(N)Cc1cc(F)ccc1F)CNC(=O)C(O)C(N)Cc1ccc(-c2cncnc2)cc1 (centres unmarked) [drawing 77],IC50,[1],0.01 µM
same,IC50,[2],0.1 µM
NC(CNC(=O)c1cccc(NC(=O)C(O)C(N)Cc2ccc(-c3ccsc3)cc2)c1)Cc1cc(F)ccc1F (centres unmarked) [drawing 78],IC50,[1],0.0005 µM
same,IC50,[2],0.46 µM
NC(CNC(=O)c1cccc(NC(=O)C(O)C(N)Cc2ccc(-c3cccnc3)cc2)c1)Cc1cc(F)ccc1F (centres unmarked) [drawing 79],IC50,[1],0.0008 µM
same,IC50,[2],0.775 µM
CN(CCCNC(=O)CC(N)Cc1cc(F)ccc1F)C(=O)C(O)C(N)Cc1ccccc1 (centres unmarked) [drawing 246],IC50,[3],≥ 200 µM
CC(C)(CNC(=O)C(O)C(N)Cc1ccccc1)CNC(=O)C(CC(=O)O)C(N)Cc1cc(F)ccc1F (centres unmarked) [drawing 262],IC50,[3],88.3 µM
CCCCCCCCCCCCCC(=O)NC(CC(=O)NCC(C)(C)CNC(=O)C(O)C(Cc1ccccc1)NC(=O)CCCCCCCCCCCCC)Cc1cc(F)ccc1F (centres unmarked) [drawing 264],IC50,[3],98.7 µM
CCC(CC)(CNC(=O)CC(N)Cc1cc(F)ccc1F)CNC(=O)C(O)C(N)Cc1ccccc1 (centres unmarked) [drawing 265],IC50,[3],7.2 µM
